Laboratory results reported in patent publication EP1350541A1, “Use of dehydroepiandrosterone and an estradiol derivative for preparing a medicament for treating postmenopausal climacteric disorders” (priority 2002, dated 2003).
Like-named read-outs stand apart in the source and are kept apart here.

Assays:
bcl-2 = test: Expression of the antiapoptotic gene bcl-2 in the hippocampus of ovariectomised rats; assay type: in vivo, Ratten; conditions: female ovariectomised rats; vs OVX control (p<0.01); Abbildung 4
[1] = test system: Corticotropin-Releaseinghormon (Nachweis der CRH mRNA); test: Induction of the estrogen-dependent CRH gene (CRH mRNA) in the brain of ovariectomised rats; assay type: in vivo, Ratten; conditions: brain of female ovariectomised rats; Abbildung 3
From the text: (§1) In Abbildung 3 werden zwei weitere Beispiele für typische Estrogenwirkungen im Gehirn von weiblichen, ovarektomierten Ratten dargestellt. […] (* Bedeutet statistisch signifikant gegenüber der Kontrollgruppe (p<0.01))

[2] = test system: Oxytocin (Nachweis der OT mRNA); test: Induction of the estrogen-dependent oxytocin gene (OT mRNA) in the brain of ovariectomised rats; assay type: in vivo, Ratten; conditions: brain of female ovariectomised rats; Abbildung 3
From the text: as §1

[3] = Stabilisation of the unstable steroids in drug formulations by stabilisers; assay type: physicochemical
From the text: Eine hinreichende Haltbarkeit der an sich sehr instabilen Steroide in Arzneimittelformulierungen wird insbesondere erreicht, wenn ein Stabilisator vorliegt. […] In einer bevorzugten Ausführungsform des erfindungsgemäßen Arzneimittels wird deshalb das Steroid mit Ascorbinsäure stabilisiert. […] Die Konzentration des Stabilisators Ascorbinsäure ist vom Gehalt des Steroids abhängig. Je nach dessen Gehalt werden bei Weichgelatinekapseln 0,1 % bis 1 % Ascorbinsäure, bezogen auf die Füllmasse, eingesetzt.

[4] = Clinical study in healthy women: serum testosterone after oral DHEA, with dexamethasone suppression; assay type: in vivo, Frauen; conditions: single dose of dexamethasone, 100 mg DHEA oral, Abbildung 5
From the text: In Abbildung 5 werden daher Ergebnisse einer klinischen Studie mit gesunden Frauen dargestellt. Zur kurzzeitigen Unterdrückung der körpereigenen Steroidproduktion erhielten die Probandinnen einmalig Dexamethason. […] Damit ist der Nachweis geführt, daß DHEA bei Frauen nach oraler Aufnahme im Körper zu dem sehr wirksamen Androgen Testosteron umgewandelt wird, d.h. DHEA ist bei Frauen ein Prodrug für Testosteron.

[5] = 100 mg/Tag oral; Arlt et al., New Engl J Med 1999; cited from earlier work
[6] = test system: induzierbaren Stickstoffmonoxid-Oxidase (iNOS); test: Inhibition of NO release (iNOS) in the brain of ovariectomised rats; assay type: in vivo, Ratten; conditions: female ovariectomised rats; compared with 17β-Estradiol; Abbildung 2; significant vs OVX control (p<0.01)
From the text: Eine der typischen Estrogenwirkungen im Gehirn ist die Hemmung der induzierbaren […] (iNOS). […] Die Kontrollgruppe sind ovarektomierte Tiere (OVX), die nur mit dem Lösungsmittel behandelt worden sind. (* Bedeutet statistisch signifikant gegenüber der Kontrollgruppe (p<0.01))

Uterus = test: Estrogenic effect on the uterus (uterine mass) of ovariectomised rats; assay type: in vivo, Ratten; conditions: female ovariectomised rats, in contrast to 17β-Estradiol; for estrogene Wirkung auf den Uterus (Zunahme der Uterusmasse): Abbildung 3

Structure (SMILES) | Expression des antiapoptotischen Gens bcl-2 im Hippocampus (bcl-2) | Induktion der estrogenabhängigen Gene für Corticotropin-Releaseinghormon (CRH mRNA) [1] | Induktion der estrogenabhängigen Gene für Oxytocin (OT mRNA) [2] | stabilisierende Wirkung (Haltbarkeit der Steroide in Arzneimittelformulierungen) [3] | other results
C[C@]12CC[C@@H]3c4ccc(O)cc4CC[C@H]3[C@@H]1CC[C@H]2O [17α-Estradiol] | im Gegensatz |  |  |  | 
C[C@]12CC[C@@H]3c4ccc(O)cc4CC[C@H]3[C@@H]1CC[C@@H]2O [17β-Estradiol, reference compound] | signifikant erhöht | gelingt | gelingt |  | 
O=C1O[C@H]([C@@H](O)CO)C(O)=C1O [Ascorbinsäure] |  |  |  |  | stabilisierende Wirkung (Haltbarkeit der Steroide in Arzneimittelformulierungen) ([3]; stabiliser added to the steroid formulation): besonders wirksam
CCCCCCCCCCCCCCCC(=O)OC[C@H](O)[C@H]1OC(=O)C(O)=C1O [Ascorbylpalmitat] |  |  |  | deutlich weniger effektiv | 
COc1ccc(O)c(C(C)(C)C)c1 [Butylhydroxyanisol] |  |  |  | deutlich weniger effektiv | 
Cc1cc(C(C)(C)C)c(O)c(C(C)(C)C)c1 [Butylhydroxytoluol] |  |  |  | deutlich weniger effektiv | 
C[C@]12CC[C@H](O)CC1=CC[C@@H]1[C@@H]2CC[C@]2(C)C(=O)CC[C@@H]12 [DHEA, Dehydroepiandrosteron] |  |  |  |  | Serum-Testosteronkonzentrationen [4]: auf das Niveau der unbehandelten Kontrollen hebt; unerwünschte Virilisierungserscheinungen [5]: keine unerwünschten Virilisierungserscheinungen
C[C@]12CCC3=C(CCc4cc(O)ccc43)[C@@H]1CC[C@H]2O [J 811, Estra-1,3,5(10),8-tetraen-3,17α-diol] |  | gelingt | gelingt |  | Hemmung der Freisetzung von NO [6]: genauso stark wie bei dem wichtigsten körpereigenen Estrogen, dem 17β-Estradiol; estrogene Wirkung auf den Uterus (Zunahme der Uterusmasse) (Uterus): nicht nachweisbar
C[C@]12CCC3=C(CCc4cc(O)ccc43)[C@@]13C[C@H]3C[C@H]2O [J 861, 14α, 15α-Methylenestra-1,3,5(10),8-tetraen-3,17α-diol] | signifikant erhöht | gelingt | gelingt |  | Hemmung der Freisetzung von NO [6]: genauso stark wie bei dem wichtigsten körpereigenen Estrogen, dem 17β-Estradiol; estrogene Wirkung auf den Uterus (Zunahme der Uterusmasse) (Uterus): nicht nachweisbar; Wirkung auf den Uterus (Uterus; Abbildung 4): keinerlei Wirkung auf den Uterus
